# Test results from the supplement of paper PMC10307832.
# What was measured:
# Test in all cases: relative viability (nuclei count vs DMSO), 5 days (fraction); higher = more cells survive
# [1] = compound: COc1cccc2c1C(=O)c1c(O)c3c(c(O)c1C2=O)C[C@@](O)(C(=O)CO)C[C@@H]3O[C@H]1C[C@H](N)[C@H](O)[C@H](C)O1 [Doxorubicin] + N=C(N)NC(=N)NCCc1ccccc1 [Phenformin] (partner 250 µM)
# Outline: (§1)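 Relative viability equals treated-well nuclei counts divided by vehicle-well nuclei counts. Counts came from 4× images of lung cancer cell lines grown in 1536-well plates for 5 days after pin-tool dosing on the day after seeding. Dosing used one drug alone or a fixed anchor-drug dose plus five library-drug doses (not always all listed) in √10 steps, and values are medians of duplicate plates.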
# [2] = compound: COC1=C(C=C(C=C1)C2=CC3=NC=CN3C(=N2)NC4=C(C=CC=N4)C(=O)N)OC [BAY61-3606] + CC(C)C[C@H](NC(=O)[C@H](Cc1ccccc1)NC(=O)c1cnccn1)B(O)O [Bortezomib] (partner 0.002 µM)
# Outline: as §1
# [3] = compound: COC1=C(C=C(C=C1)C2=CC3=NC=CN3C(=N2)NC4=C(C=CC=N4)C(=O)N)OC [BAY61-3606] + Nc1nc2[nH]cc(CCc3ccc(C(=O)N[C@@H](CCC(=O)O)C(=O)O)cc3)c2c(=O)[nH]1 [Pemetrexed] (partner 0.2 µM)
# Outline: as §1
# [4] = compound: COC1=C(C=C(C=C1)C2=CC3=NC=CN3C(=N2)NC4=C(C=CC=N4)C(=O)N)OC [BAY61-3606] + CC1(C)CCC(c2ccc(Cl)cc2)=C(CN2CCN(c3ccc(C(=O)NS(=O)(=O)c4ccc(N[C@H](CCN5CCOCC5)CSc5ccccc5)c(S(=O)(=O)C(F)(F)F)c4)cc3)CC2)C1 [Navitoclax] (partner 0.5 µM)
# Outline: as §1
Cell Line,relative viability ([1]; first compound 0.001 µM),relative viability ([1]; first compound 0.003162 µM),relative viability ([1]; first compound 0.01 µM),relative viability ([1]; first compound 0.03162 µM),relative viability ([1]; first compound 0.1 µM),relative viability ([2]; first compound 0.02 µM),relative viability ([2]; first compound 0.06325 µM),relative viability ([2]; first compound 0.2 µM),relative viability ([2]; first compound 0.6325 µM),relative viability ([2]; first compound 2 µM),relative viability ([3]; first compound 0.02 µM),relative viability ([3]; first compound 0.06325 µM),relative viability ([3]; first compound 0.2 µM),relative viability ([3]; first compound 0.6325 µM),relative viability ([3]; first compound 2 µM),relative viability ([4]; first compound 0.02 µM),relative viability ([4]; first compound 0.06325 µM),relative viability ([4]; first compound 0.2 µM),relative viability ([4]; first compound 0.6325 µM),relative viability ([4]; first compound 2 µM)
HCC-44,0.207,0.244,0.341,0.151,0.162,0.889,0.847,0.845,0.878,0.947,0.613,0.692,0.682,0.659,0.651,0.935,0.903,1.01,1.13,0.816
HCC-78,0.778,0.768,0.659,0.706,0.625,0.452,0.535,0.526,0.479,0.427,0.864,0.951,0.868,0.889,0.825,0.915,0.652,0.905,0.802,0.801
HCC-366,,0.614,0.601,0.48,0.395,1.04,1.16,1.1,0.998,0.964,0.187,0.174,0.181,0.164,0.165,1.09,1.05,0.87,0.999,0.891
HCC-827,0.429,0.409,0.401,0.401,0.408,1.03,1.07,1.01,1.02,1.1,0.274,0.295,0.274,0.254,0.262,1,0.998,1.06,1.08,1.02
IA-LM,,,,,,0.912,,0.917,0.797,0.68,,,,,,0.812,,0.827,0.793,0.725
LCLC-103H,0.341,0.37,0.345,0.293,0.354,1.28,1.01,1.03,1.07,1.05,0.437,0.441,0.457,0.462,0.446,,,,,
LK-2,0.31,0.328,0.388,0.33,0.351,,,,,,0.245,0.232,0.384,0.288,0.252,0.927,0.963,0.925,0.896,0.705
NCI-H358,0.299,0.307,0.176,0.0992,0.0721,,,,,,0.196,0.184,0.226,0.163,0.153,,,,,
NCI-H522,0.595,0.622,0.585,0.543,0.645,,,,,,1.15,0.966,1.04,0.907,0.817,,,,,
NCI-H650,0.543,0.419,0.509,0.424,0.373,0.917,0.766,0.618,0.681,0.72,0.958,0.904,0.892,1.01,0.797,,,,,
